Here are results for 3 compounds from patent publication US5457124A, “Carboxylic acid Leukotriene B4 antagonists” (Hoffmann-La Roche Inc., priority 1993, dated 1995).

Molecules are shown by their SMILES.

For one assay, the system named is leukotriene B4. Briefly: Guinea Pig Bronchoconstriction, In Vivo (leukotriene B4 challenge). More on the design: species or system guinea pig (Hartley strain). To be noted: 0.1 mg/kg test compound dose p.o., 2 hr prior to leukotriene B4 (200 μg/kg i.v.); propranolol 0.1 mg/kg i.v.; male guinea pigs. On the procedure:
Guinea Pig Bronchoconstriction, In Vivo
Male guinea pigs (Hartley strain), weighing 300 to 500 g are anesthetized with urethane (2 g/kg) intraperitoneally and a polyethylene cannula is inserted into the jugular vein for drug administration. Tracheal pressure is recorded from a cannula inserted into the trachea and connected to a Gould P231D pressure transducer. After surgical preparation of the animals, a period of time is allowed for pulmonary functions to stabilize. Animals are then paralyzed with succinylcholine (1.2 mg/kg, i.v.) and mechanically respirated (Harvard rodent respirator) at 40 breaths/minute and 2.5 cc tidal volume. The test compound is administered p.o., 2 hr prior to leukotriene B4 administration. Propranolol (0.1 mg/kg) is administered intravenously 5 min prior to leukotriene B4 administration. Animals are then challenged with an intermediate constrictory dose of leukotriene B4 (200 μg/kg), delivered intravenously.
The change (cm H2 O) between pre and peak ventilatory pressure readings is averaged for 6 control and 6 drug treated animals. The percent inhibition is calculated from the formula:
((Control-Drug Treated)/Control)×100
When representative compounds of formulas A, B and C of the invention were utilized as the test compounds, the following results were obtained: […]

The next assay deals with T1, LTB4 Receptor (Homo sapiens, UniProt Q15722).
T1 construct: Isolated human neutrophils in Gey's salt solution; endogenous in cells; host or cells: isolated human neutrophils
T1 sequence (Q15722 whole entry): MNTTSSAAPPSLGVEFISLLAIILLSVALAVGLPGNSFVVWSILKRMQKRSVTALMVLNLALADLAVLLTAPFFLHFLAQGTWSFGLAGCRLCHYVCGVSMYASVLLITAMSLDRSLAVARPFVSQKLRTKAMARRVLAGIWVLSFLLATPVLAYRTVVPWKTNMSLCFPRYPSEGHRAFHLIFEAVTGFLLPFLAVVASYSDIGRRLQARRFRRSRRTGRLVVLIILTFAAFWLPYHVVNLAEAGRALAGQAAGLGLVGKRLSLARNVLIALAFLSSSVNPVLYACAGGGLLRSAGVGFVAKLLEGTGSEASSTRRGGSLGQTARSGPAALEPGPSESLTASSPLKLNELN
Kind of assay: LTB4 Receptor Binding Assay (inhibition of 3H-LTB4 binding, isolated human neutrophils). To be noted: 0.5 nM 3H-LTB4, 45 minutes on ice, Cheng-Prusoff, read-out: Ki, human neutrophil cells (inhibition of 3H-LTB4 binding). The method, then: LTB4 Receptor Binding Assay
Binding assays can be performed in microliter wells. Isolated human neutrophils in Gey's salt solution are incubated on ice for 45 minutes with 0.5 nM ^3 H-LTB4 in the presence or absence of test compounds. Assays are terminated by adding 12 ml of ice cold 50 mM Tris buffer (pH 7.4) followed by rapid filtration under vacuum through GF/C filters. Radioactivity is determined by scintillation counting. Non specific binding is defined as the binding not displaced by 100 fold excess of unlabelled LTB4. Specific binding is defined as the difference between total binding and non-specific binding. Non linear analysis of the binding data is performed using LIGAND (Munson and Rodbard, 1980). Ki (Inhibition Constant) values were determined using the Cheng-Prusoff relationship (Cheng and Prusoff, 1973).
When representative compounds of formulas A, B or C of the invention were tested, the results as set forth in Table I and expressed as inhibition of ^3 H-LTB4 binding were obtained.

`O=C(O)CCCOc1cccc(CCCCCCOc2ccc3c(c2CCCc2ccccc2)CCCC3=O)c1CCC(=O)O` [2-(3-Carboxypropoxy)-6-[6-[[5,6,7,8-tetrahydro-5-oxo-1-(3-phenylpropyl)-2-naphthalenyl]oxy]hexyl]benzenepropanoic Acid]: in the assay with leukotriene B4, the “% inhibition (of leukotriene B4-induced bronchoconstriction)” value (“% inhibition” for short) is recorded as 78%. Also, the Ki (usually the equilibrium dissociation constant of an inhibitor or competing ligand from its target) on LTB4 Receptor is 2 nM.

Regarding `O=C(O)CCCOc1cccc(CCCCCCOc2ccc3c(c2C/C=C/c2ccccc2)CCCC3=O)c1CCC(=O)O` [(E)-2-(3-Carboxypropoxy)-6-[6-[[5,6,7,8-tetrahydro-5-oxo-1-(3-phenyl-2-propenyl)-2-naphthalenyl]oxy]hexyl]benzenepropanoic Acid], the “% inhibition” value with leukotriene B4 turned out to be 64%. Further, at LTB4 Receptor, the Ki was 1 nM.

Consider `O=C(O)CCCOc1cccc(CCCCCCOc2ccc3c(c2CCCc2ccccc2)OCCC3=O)c1CCC(=O)O` [2-(3-Carboxypropoxy)-6-[6-[[3,4-dihydro-4-oxo-8-(3-phenylpropyl)-2H-1-benzopyran-7-yl]oxy]hexyl]benzenepropanoic Acid], for which the “% inhibition” value with leukotriene B4 is 67%. Also, the Ki on LTB4 Receptor was determined as 1 nM.
